Assay results as given in the kinase profiling compilation of Christmann-Franck et al. (2016).

Experiments:
Assay in all cases: radiometric filter-binding kinase assay, Kinase HotSpot
Conditions in all cases: compound 0.5 µM; ATP 10 µM
[1] = target: PRKCA (human) (UniProt P17252)
[2] = target: VRK1 (human) (UniProt Q99986)
[3] = target: MAP3K11 (human) (UniProt Q16584)
[4] = target: MAP4K2 (human) (UniProt Q12851)
[5] = target: TTK (human) (UniProt P33981)
[6] = target: PAK4 (human) (UniProt O96013)
[7] = target: CDK9 CCNT1 (human) (UniProt P50750+O60563)
[8] = target: CAMK4 (human) (UniProt Q16566)
[9] = target: DYRK1A (human) (UniProt Q13627)
[10] = target: CHEK1 (human) (UniProt O14757)
[11] = target: KDR (human) (UniProt P35968)
[12] = target: JAK3 JH1 JH2 (human) (UniProt P52333)
[13] = target: ACVRL1 (human) (UniProt P37023)
[14] = target: CHEK2 (human) (UniProt O96017)
[15] = target: PDPK1 (human) (UniProt O15530)
[16] = target: PDGFRB (human) (UniProt P09619)
[17] = target: CSNK2A2 (human) (UniProt P19784)
[18] = target: STK11 (human) (UniProt Q15831)
[19] = target: DAPK3 (human) (UniProt O43293)
[20] = target: MARK1 (human) (UniProt Q9P0L2)
[21] = target: FRK (human) (UniProt P42685)
[22] = target: PHKG2 (human) (UniProt P15735)
[23] = target: CDK1 CCNB1 (human) (UniProt P06493+P14635)
[24] = target: NUAK1 (human) (UniProt O60285)
[25] = target: PTK6 (human) (UniProt Q13882)
[26] = target: DYRK4 (human) (UniProt Q9NR20)
[27] = target: DYRK1B (human) (UniProt Q9Y463)
[28] = target: PKN2 (human) (UniProt Q16513)
[29] = target: PRKCI (human) (UniProt P41743)
[30] = target: PAK3 (human) (UniProt O75914)
[31] = target: MINK1 (human) (UniProt Q8N4C8)
[32] = target: MAP3K3 (human) (UniProt Q99759)
[33] = target: OXSR1 (human) (UniProt O95747)
[34] = target: LRRK2 (human) (UniProt Q5S007)
[35] = target: HCK (human) (UniProt P08631)
[36] = target: MAP2K2 (human) (UniProt P36507)
[37] = target: MARK2 (human) (UniProt Q7KZI7)
[38] = target: TEK (human) (UniProt Q02763)
[39] = target: PRKCZ (human) (UniProt Q05513)
[40] = target: CAMK1D (human) (UniProt Q8IU85)
[41] = target: ABL2 (human) (UniProt P42684)
[42] = target: FGR (human) (UniProt P09769)

MARK1 (human), sequence (Q9P0L2 whole entry, looked up): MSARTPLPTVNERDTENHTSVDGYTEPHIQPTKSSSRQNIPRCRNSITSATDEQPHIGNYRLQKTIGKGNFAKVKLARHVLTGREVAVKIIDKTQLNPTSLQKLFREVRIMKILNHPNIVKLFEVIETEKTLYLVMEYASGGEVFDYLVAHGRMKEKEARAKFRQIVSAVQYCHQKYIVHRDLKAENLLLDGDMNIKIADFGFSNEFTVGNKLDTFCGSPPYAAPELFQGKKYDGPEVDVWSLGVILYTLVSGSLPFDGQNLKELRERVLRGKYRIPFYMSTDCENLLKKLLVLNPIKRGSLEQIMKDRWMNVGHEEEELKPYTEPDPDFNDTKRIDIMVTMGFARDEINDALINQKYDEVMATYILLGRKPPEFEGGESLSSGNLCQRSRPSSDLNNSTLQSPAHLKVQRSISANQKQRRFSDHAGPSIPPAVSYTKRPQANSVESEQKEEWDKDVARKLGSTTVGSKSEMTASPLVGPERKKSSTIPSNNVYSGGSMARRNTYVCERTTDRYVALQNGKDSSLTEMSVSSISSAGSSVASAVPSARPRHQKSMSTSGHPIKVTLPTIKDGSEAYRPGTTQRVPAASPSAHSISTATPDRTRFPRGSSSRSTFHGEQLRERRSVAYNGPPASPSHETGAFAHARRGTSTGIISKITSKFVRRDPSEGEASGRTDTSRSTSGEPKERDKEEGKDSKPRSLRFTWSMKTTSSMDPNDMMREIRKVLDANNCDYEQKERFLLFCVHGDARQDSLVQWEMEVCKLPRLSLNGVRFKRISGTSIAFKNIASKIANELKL
CAMK4 (human), sequence (Q16566 whole entry, looked up): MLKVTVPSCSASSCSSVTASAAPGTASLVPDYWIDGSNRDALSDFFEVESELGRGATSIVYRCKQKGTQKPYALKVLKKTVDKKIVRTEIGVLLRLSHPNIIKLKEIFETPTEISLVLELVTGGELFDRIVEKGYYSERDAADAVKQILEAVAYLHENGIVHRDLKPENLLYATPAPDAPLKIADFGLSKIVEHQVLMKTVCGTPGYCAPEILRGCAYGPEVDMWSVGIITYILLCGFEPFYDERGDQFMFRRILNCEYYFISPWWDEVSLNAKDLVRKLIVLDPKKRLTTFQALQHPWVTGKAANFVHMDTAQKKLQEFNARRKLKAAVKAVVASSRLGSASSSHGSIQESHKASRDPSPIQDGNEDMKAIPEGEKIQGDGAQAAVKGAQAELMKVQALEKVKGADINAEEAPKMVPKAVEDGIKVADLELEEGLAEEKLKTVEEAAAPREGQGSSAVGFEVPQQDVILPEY
CDK1 CCNB1 (human), sequence (P06493 whole entry, looked up): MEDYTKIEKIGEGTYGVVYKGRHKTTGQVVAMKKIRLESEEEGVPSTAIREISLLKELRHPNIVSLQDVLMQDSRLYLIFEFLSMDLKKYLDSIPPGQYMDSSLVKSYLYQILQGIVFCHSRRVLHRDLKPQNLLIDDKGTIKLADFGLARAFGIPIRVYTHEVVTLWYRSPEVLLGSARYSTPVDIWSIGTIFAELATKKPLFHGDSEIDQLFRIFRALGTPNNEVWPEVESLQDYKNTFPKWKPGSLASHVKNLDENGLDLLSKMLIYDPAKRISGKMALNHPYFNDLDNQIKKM
CDK1 CCNB1 (human), sequence (P14635 whole entry, looked up): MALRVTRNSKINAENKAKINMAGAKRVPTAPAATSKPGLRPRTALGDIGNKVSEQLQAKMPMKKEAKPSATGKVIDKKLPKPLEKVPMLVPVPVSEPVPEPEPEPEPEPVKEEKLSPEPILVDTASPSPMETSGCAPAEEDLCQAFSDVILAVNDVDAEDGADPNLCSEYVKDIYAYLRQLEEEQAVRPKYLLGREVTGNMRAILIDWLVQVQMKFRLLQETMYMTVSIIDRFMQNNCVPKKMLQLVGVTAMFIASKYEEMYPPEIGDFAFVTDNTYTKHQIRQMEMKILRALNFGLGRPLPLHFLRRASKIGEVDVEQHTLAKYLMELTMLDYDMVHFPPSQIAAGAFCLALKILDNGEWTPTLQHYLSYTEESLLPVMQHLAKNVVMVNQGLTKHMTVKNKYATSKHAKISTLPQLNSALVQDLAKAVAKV
DYRK4 (human), sequence (Q9NR20 whole entry, looked up): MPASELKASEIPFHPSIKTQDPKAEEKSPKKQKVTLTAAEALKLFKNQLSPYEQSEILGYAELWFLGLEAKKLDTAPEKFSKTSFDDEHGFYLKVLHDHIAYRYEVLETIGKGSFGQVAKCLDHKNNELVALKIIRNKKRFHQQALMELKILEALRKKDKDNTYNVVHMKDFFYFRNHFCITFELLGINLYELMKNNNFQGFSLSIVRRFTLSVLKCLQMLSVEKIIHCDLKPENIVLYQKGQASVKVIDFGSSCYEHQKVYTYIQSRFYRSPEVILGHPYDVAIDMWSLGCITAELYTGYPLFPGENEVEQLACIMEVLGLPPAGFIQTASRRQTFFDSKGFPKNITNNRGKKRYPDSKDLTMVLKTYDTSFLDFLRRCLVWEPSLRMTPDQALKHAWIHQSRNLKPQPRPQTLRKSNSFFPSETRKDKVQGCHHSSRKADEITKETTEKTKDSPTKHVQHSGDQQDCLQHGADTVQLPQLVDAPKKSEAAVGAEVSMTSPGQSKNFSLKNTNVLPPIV
MAP4K2 (human), sequence (Q12851 whole entry, looked up): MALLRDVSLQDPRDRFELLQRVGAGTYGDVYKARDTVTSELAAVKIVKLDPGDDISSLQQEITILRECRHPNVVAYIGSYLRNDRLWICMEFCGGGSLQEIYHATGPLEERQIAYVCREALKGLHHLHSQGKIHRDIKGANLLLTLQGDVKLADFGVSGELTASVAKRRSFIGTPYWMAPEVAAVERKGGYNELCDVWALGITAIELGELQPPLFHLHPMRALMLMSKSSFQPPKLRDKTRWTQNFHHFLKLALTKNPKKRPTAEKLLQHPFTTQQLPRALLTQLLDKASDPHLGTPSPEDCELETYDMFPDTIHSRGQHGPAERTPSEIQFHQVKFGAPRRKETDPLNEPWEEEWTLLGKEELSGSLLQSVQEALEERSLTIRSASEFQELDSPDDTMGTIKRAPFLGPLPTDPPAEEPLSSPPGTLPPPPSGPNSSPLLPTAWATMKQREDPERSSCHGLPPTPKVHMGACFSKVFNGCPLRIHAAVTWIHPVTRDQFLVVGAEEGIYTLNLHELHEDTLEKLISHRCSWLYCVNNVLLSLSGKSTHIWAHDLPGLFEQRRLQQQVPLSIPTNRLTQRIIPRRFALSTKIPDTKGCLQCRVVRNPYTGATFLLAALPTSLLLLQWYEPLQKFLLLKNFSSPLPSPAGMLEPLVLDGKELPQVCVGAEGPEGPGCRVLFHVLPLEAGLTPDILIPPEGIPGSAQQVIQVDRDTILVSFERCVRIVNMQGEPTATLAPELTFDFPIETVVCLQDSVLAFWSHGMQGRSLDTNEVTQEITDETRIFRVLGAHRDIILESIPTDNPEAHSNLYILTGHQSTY
HCK (human), sequence (P08631 whole entry, looked up): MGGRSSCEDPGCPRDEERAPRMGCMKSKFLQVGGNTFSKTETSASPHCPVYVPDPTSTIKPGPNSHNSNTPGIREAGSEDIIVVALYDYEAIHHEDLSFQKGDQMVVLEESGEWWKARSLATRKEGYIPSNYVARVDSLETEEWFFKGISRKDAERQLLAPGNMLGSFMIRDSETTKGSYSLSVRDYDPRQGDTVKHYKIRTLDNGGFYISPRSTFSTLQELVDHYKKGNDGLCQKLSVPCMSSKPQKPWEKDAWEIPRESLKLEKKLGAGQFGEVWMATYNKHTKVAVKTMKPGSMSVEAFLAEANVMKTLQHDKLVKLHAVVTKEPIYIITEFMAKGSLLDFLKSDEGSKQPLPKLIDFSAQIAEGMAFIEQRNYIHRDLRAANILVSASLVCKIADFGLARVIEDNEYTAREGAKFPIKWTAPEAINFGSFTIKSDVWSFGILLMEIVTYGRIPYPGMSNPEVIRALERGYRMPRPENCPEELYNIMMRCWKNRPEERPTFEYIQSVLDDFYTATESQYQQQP
CHEK1 (human), sequence (O14757 whole entry, looked up): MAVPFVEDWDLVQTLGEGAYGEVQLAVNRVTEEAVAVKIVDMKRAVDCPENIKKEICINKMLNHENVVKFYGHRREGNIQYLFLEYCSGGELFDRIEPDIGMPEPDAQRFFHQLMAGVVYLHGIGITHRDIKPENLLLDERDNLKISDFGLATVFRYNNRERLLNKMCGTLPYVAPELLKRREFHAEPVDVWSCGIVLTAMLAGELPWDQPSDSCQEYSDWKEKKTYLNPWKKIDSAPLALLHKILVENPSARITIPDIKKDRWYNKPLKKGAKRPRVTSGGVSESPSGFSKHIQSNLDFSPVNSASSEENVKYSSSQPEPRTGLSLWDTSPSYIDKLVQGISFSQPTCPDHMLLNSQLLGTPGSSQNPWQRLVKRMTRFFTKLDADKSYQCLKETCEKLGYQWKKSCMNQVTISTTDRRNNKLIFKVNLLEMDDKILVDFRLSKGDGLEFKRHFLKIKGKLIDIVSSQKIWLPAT
NUAK1 (human), sequence (O60285 whole entry, looked up): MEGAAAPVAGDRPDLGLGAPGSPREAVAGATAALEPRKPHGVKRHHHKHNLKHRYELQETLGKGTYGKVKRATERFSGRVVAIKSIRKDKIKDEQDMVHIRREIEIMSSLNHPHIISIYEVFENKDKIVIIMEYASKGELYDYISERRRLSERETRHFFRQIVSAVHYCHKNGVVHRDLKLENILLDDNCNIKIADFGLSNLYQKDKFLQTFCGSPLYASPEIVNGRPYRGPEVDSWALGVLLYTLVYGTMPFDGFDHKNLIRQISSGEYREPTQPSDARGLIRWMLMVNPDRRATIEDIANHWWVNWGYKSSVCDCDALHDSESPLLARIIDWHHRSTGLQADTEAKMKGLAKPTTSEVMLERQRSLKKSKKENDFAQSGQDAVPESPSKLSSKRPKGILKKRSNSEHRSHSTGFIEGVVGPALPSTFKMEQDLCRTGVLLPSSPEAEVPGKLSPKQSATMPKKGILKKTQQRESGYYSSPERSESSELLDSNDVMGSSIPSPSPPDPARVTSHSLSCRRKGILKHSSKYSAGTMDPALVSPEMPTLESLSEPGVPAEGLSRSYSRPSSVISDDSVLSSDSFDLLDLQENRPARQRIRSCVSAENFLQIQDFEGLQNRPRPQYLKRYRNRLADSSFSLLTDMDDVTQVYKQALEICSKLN

## Cn1nc2c3c(cccc31)C(=O)c1ccccc1-2
[1]
  residual activity: 96.1%
[2]
  residual activity: 84.1%
[3]
  residual activity: 97.2%
[4]
  residual activity: 75.4%
[5]
  residual activity: 77.7%
[6]
  residual activity: 90.4%
[7]
  residual activity: 94.7%
[8]
  residual activity: 100%
[9]
  residual activity: 94.1%
[10]
  residual activity: 93.7%
[11]
  residual activity: 101%
[12]
  residual activity: 107%
[13]
  residual activity: 102%
[14]
  residual activity: 89.8%
[15]
  residual activity: 94.5%
[16]
  residual activity: 100%
[17]
  residual activity: 86.6%
[18]
  residual activity: 87.7%
[19]
  residual activity: 102%
[20]
  residual activity: 95.7%
[21]
  residual activity: 94.3%
[22]
  residual activity: 95.4%
[23]
  residual activity: 108%
[24]
  residual activity: 46.2%
[25]
  residual activity: 91.8%
[26]
  residual activity: 91.2%
[27]
  residual activity: 93.1%
[28]
  residual activity: 97.3%
[29]
  residual activity: 98.5%
[30]
  residual activity: 101%
[31]
  residual activity: 92.3%
[32]
  residual activity: 94.4%
[33]
  residual activity: 102%
[34]
  residual activity: 55.9%
[35]
  residual activity: 94.6%
[36]
  residual activity: 102%
[37]
  residual activity: 94.1%
[38]
  residual activity: 98.2%
[39]
  residual activity: 97.9%
[40]
  residual activity: 70.3%
[41]
  residual activity: 97.8%
[42]
  residual activity: 93.4%

## O=C1NC(=O)C(c2c[nH]c3ccccc23)=C1c1c[nH]c2ccccc12
[1]
  residual activity: 27.7%
[2]
  residual activity: 109%
[3]
  residual activity: 68.7%
[4]
  residual activity: 84.9%
[5]
  residual activity: 106%
[6]
  residual activity: 102%
[7]
  residual activity: 89.9%
[8]
  residual activity: 100%
[9]
  residual activity: 80.8%
[10]
  residual activity: 93.1%
[11]
  residual activity: 60.8%
[12]
  residual activity: 63%
[13]
  residual activity: 96.5%
[14]
  residual activity: 124%
[15]
  residual activity: 96.7%
[16]
  residual activity: 95.6%
[17]
  residual activity: 92%
[18]
  residual activity: 107%
[19]
  residual activity: 104%
[20]
  residual activity: 90.6%
[21]
  residual activity: 88.2%
[22]
  residual activity: 107%
[23]
  residual activity: 96.5%
[24]
  residual activity: 78.5%
[25]
  residual activity: 84.6%
[26]
  residual activity: 94.3%
[27]
  residual activity: 86.8%
[28]
  residual activity: 103%
[29]
  residual activity: 96.9%
[30]
  residual activity: 97.4%
[31]
  residual activity: 83.4%
[32]
  residual activity: 127%
[33]
  residual activity: 86.3%
[34]
  residual activity: 77.5%
[35]
  residual activity: 96%
[36]
  residual activity: 82.7%
[37]
  residual activity: 88.9%
[38]
  residual activity: 101%
[39]
  residual activity: 96.2%
[40]
  residual activity: 106%
[41]
  residual activity: 82.3%
[42]
  residual activity: 88.5%

## Cn1sc(=O)n(Cc2ccccc2)c1=O
[1]
  residual activity: 71.8%
[2]
  residual activity: 94.2%
[3]
  residual activity: 95.3%
[4]
  residual activity: 119%
[5]
  residual activity: 101%
[6]
  residual activity: 104%
[7]
  residual activity: 94.2%
[8]
  residual activity: 93.2%
[9]
  residual activity: 92.6%
[10]
  residual activity: 103%
[11]
  residual activity: 89.4%
[12]
  residual activity: 106%
[13]
  residual activity: 117%
[14]
  residual activity: 108%
[15]
  residual activity: 95.5%
[16]
  residual activity: 87.3%
[17]
  residual activity: 98.5%
[18]
  residual activity: 106%
[19]
  residual activity: 103%
[20]
  residual activity: 107%
[21]
  residual activity: 112%
[22]
  residual activity: 90.6%
[23]
  residual activity: 95.7%
[24]
  residual activity: 102%
[25]
  residual activity: 96.7%
[26]
  residual activity: 99.3%
[27]
  residual activity: 103%
[28]
  residual activity: 97.2%
[29]
  residual activity: 95.2%
[30]
  residual activity: 100%
[31]
  residual activity: 88.7%
[32]
  residual activity: 94.2%
[33]
  residual activity: 91.1%
[34]
  residual activity: 91.9%
[35]
  residual activity: 103%
[36]
  residual activity: 101%
[37]
  residual activity: 118%
[38]
  residual activity: 90.9%
[39]
  residual activity: 101%
[40]
  residual activity: 97.1%
[41]
  residual activity: 96.7%
[42]
  residual activity: 101%

## COc1ccc(OC)c2c(=S)c3ccccc3[nH]c12
[1]
  residual activity: 95.7%
[2]
  residual activity: 100%
[3]
  residual activity: 107%
[4]
  residual activity: 96.5%
[5]
  residual activity: 99.1%
[6]
  residual activity: 102%
[7]
  residual activity: 98.8%
[8]
  residual activity: 101%
[9]
  residual activity: 103%
[10]
  residual activity: 92.7%
[11]
  residual activity: 108%
[12]
  residual activity: 96.7%
[13]
  residual activity: 99%
[14]
  residual activity: 117%
[15]
  residual activity: 94.9%
[16]
  residual activity: 98.1%
[17]
  residual activity: 87.1%
[18]
  residual activity: 84.4%
[19]
  residual activity: 112%
[20]
  residual activity: 88.3%
[21]
  residual activity: 88.8%
[22]
  residual activity: 94.6%
[23]
  residual activity: 97.8%
[24]
  residual activity: 99.3%
[25]
  residual activity: 84%
[26]
  residual activity: 107%
[27]
  residual activity: 107%
[28]
  residual activity: 105%
[29]
  residual activity: 99.3%
[30]
  residual activity: 98%
[31]
  residual activity: 95.9%
[32]
  residual activity: 117%
[33]
  residual activity: 90.6%
[34]
  residual activity: 98%
[35]
  residual activity: 95.8%
[36]
  residual activity: 100%
[37]
  residual activity: 93.9%
[38]
  residual activity: 100%
[39]
  residual activity: 99.4%
[40]
  residual activity: 104%
[41]
  residual activity: 92.5%
[42]
  residual activity: 90.8%
